Entries after “also recorded” stand apart in the source; their conditions may differ. Like-named read-outs stand apart in the source and are kept apart here.
Key:
[1] = system: utriculi (pseudocomedones) of rhino mouse skin; test: Rhino mouse model (comedolytic and hyperplastic potency, skin irritation); conditions: for Skin irritation YES/NO / % increase in epidermal thickness / % reduction in number of utriculi: once daily for three weeks; for comedolytic effect (reduction in number of utriculi), in words / epidermal hyperplasia (increase in epidermal thickness and follicular epithelia), in words: 1.5% concentration in acetone, three weeks; for clinical visible skin irritancy, in words: three weeks treatment period
Protocol: (§3) The rhino mouse is an in vivo model for the study of hyperplastic and comedolytic potency of various drugs used in the treatment of acne. The rhino mouse has follicles on the skin. The orifices are distended with horny material and these structures resembles human microcomedones and are referred to as utriculi or pseudocomedones.
(§4) In the present study the effect of a number of compounds were evaluated in the rhino mouse model. […] Additionally a number of marketed products used today for treatment of acne were selected and included for comparison.
(§5) The animals were treated once daily for three weeks including weekends. […] Histological evaluation of the skin was performed at the end of the treatment period.

[2] = cited from earlier work
[3] = system: Oxazolone-induced contact dermatitis in the mouse ear; test: Model 1: oxazolone-induced contact dermatitis in the mouse ear; format: in vivo; conditions: topical in acetone 30 min post-challenge, 0.5 mg/ear (all-trans retinoic acid 0.01 mg/ear)
Protocol: (§1) For in vivo assays, the test compounds were dissolved in acetone. Adapalene was tested as a gel formulation (Differin gel 0.1%, 20-30 mg/treatment). The screening doses were 0.5 mg/ear in model 1 and 2. Exception was all-trans retinoic acid (0.01 mg/ear).
Model 1. Oxazolone-induced Contact Dermatitis in the Mouse Ear
AIM Compounds with anti-inflammatory effects in this model may be useful in treating contact eczema in man.
METHODS Groups of 5-6 mice sensitised to oxazolone 4 days before challenge with oxazolone to the right ear. The resulting oedema (right ear thickness minus left ear thickness) is measured 24, 48 and 72 hours post-challenge (PC), and neutrophil (PMN) influx is determined by the myeloperoxidase (MPO) method 72 hours post-challenge in ear biopsies. The screening dose is 0.5 mg/ear or less applied to the right ear 30 min post-challenge (+30 min). Other dosing regimes are stated.
(§2) RESULTS Results are recorded as % change from control animals using the formula: 100(T/C-1) where T=mean Oedema/MPO treated group and C=mean Oedema/MPO control group. Negative figures represent inhibition and positive stimulation. The level of significance is set at p<0.05 using the Mann-Whitney's U-test. Significant stimulation is stated.

[4] = system: TPA-induced chronic skin inflammation in the mouse ear; test: Model 2: TPA-induced chronic skin inflammation in the mouse ear; format: in vivo; conditions: topical in acetone twice daily day 8-10, once day 11, 0.5 mg/ear (all-trans retinoic acid 0.01 mg/ear)
Protocol: as §1
Model 2. Tpa-induced Chronic Skin Inflammation in the Mouse Ear
AIM Compounds with anti-inflammatory effects in this model may be useful in treating chronic skin disorders in man.
METHODS In groups of 5-6 mice, ear inflammation is induced by multiple topical applications of TPA on alternate days during a 10-day period. The resulting inflammation is treated topically with compounds in acetone solution twice daily on day 8, 9 and 10 and once on day 11. Ear thickness (ET) is determined 5-6 hours after the last drug administration, the mice are sacrificed and myeloperoxidase (MPO) activity (=PMN-infiltration) is determined in ear biopsies, cf. De Young, L. M. et al, Agents Actions, 26, 335-341 (1989); Carlson, R. P. et al, Agents Actions, 17, 197-204 (1985); Alford, J. G. et al, Agents Action, 37, (1992); Stanley, P. L. et at, Skin Pharmacol, 4, 262-271 (1991).
as §2, with “group” for “animals”, “ET/MPO” for “Oedema/MPO”

[5] = system: utriculi (pseudocomedones) of rhino mouse skin; conditions: in vivo
Protocol: as §3, §4, §5

[6] = Differin gel 0.1%, versus untreated controls
[7] = 20 μg/ml in ethanol, period 1, versus vehicle control
[8] = Skinoren cream 20%, versus untreated controls
[9] = Basiron gel 5%, versus untreated controls
[10] = Basiron gel 10%, versus untreated controls
[11] = 1.5% in acetone, versus vehicle control

In the case of `COc1ccc(-c2ccc3cc(C(=O)O)ccc3c2)cc1C12CC3CC(CC(C3)C1)C2` [Adapalene], the “Skin irritation YES/NO” value ([1]; Differin gel 0.1%) is reported as “YES”, the “% increase in epidermal thickness” value [1, 6] is reported as 202% and the “% reduction in number of utriculi” value [1, 6] is reported as 92.7%.
For `CC1=C(/C=C/C(C)=C/C=C/C(C)=C/C(=O)O)C(C)(C)CCC1` [All-trans retinoic acid], the Anti-inflam. ([2]; topical administration) is listed as “No”, the Antibacterial ([2]; topical administration) is listed as “No” and the Comedolytic ([2]; topical administration) is listed as “Yes”. The Potential irritant ([2]; topical administration) was “Yes”, the Teratogenic ([2]; topical administration) was “Maybe” and the “SCORE OXA Oedema 48 hours p.c.” value [3] was 0 (% inhibition Oedema 48 h PC < 25). For the same compound, the “Skin irritation YES/NO” value ([1]; 20 μg/ml in ethanol, period 1) was “YES”, the “% increase in epidermal thickness” value [1, 7] was 110% and the “% reduction in number of utriculi” value [1, 7] was 81.5%. The “SCORE TPA Ear swelling” value [4] was 0 (% inhibition ET <25).
For `O=C(O)CCCCCCCC(=O)O` [Azelaic acid], the “Skin irritation YES/NO” value [5] is listed as “NO”, the Anti-inflam. ([2]; topical administration) is listed as “Maybe” and the Antibacterial ([2]; topical administration) is listed as “Yes”. For the same compound, the Comedolytic ([2]; topical administration) was “Yes”, the Potential irritant ([2]; topical administration) was “Yes” and the Teratogenic ([2]; topical administration) was “No”. For the same compound, the “SCORE OXA Oedema 48 hours p.c.” value [3] was 0 (% inhibition Oedema 48 h PC < 25), the “% increase in epidermal thickness” value [1, 8] was 75% and the “% reduction in number of utriculi” value [1, 8] was 5.7%. For the same compound, the “SCORE TPA Ear swelling” value [4] was 0 (% inhibition ET <25).
For `O=C(OOC(=O)c1ccccc1)c1ccccc1` [Benzoyl peroxide], the Anti-inflam. ([2]; topical administration) is given as “Maybe”, the Antibacterial ([2]; topical administration) is given as “Yes” and the Comedolytic ([2]; topical administration) is given as “Some-”. For the same compound, the Potential irritant ([2]; topical administration) was “Yes”, the “SCORE OXA Oedema 48 hours p.c.” value [3] was 0 (% inhibition Oedema 48 h PC < 25) and the “Skin irritation YES/NO” value ([1]; Basiron gel 5%) was “YES”. For the same compound, the “% increase in epidermal thickness” value [1, 9] was 178%, the “% reduction in number of utriculi” value [1, 9] was 46.1% and the “Skin irritation YES/NO” value ([1]; Basiron gel 10%) was “YES”. The “% increase in epidermal thickness” value [1, 10] was 190%, the “% reduction in number of utriculi” value [1, 10] was 62.1% and the “SCORE TPA Ear swelling” value [4] was 0 (% inhibition ET <25).
For `CCC[C@@H]1C[C@@H](C(=O)N[C@@H]([C@H]2O[C@H](SC)[C@H](O)[C@@H](O)[C@H]2O)[C@H](C)Cl)N(C)C1` [Clindamycin], the Teratogenic ([2]; topical administration) is listed as “Probably”.
In the case of `Cc1ccccc1C(=O)c1ccc(Nc2ccc(Br)cc2N)cc1Cl` [Compound 101, 4-(2-Amino-4-bromophenylamino)-2-chloro-2′-methylbenzophenone], the “SCORE OXA Oedema 48 hours p.c.” value [3] is reported as 2 (% inhibition Oedema 48 h PC ≧ 35 p < 0.05), the “comedolytic effect (reduction in number of utriculi), in words” value [1] is reported as “comedolytic effect; also recorded: most pronounced comedolytic activity” and the “epidermal hyperplasia (increase in epidermal thickness and follicular epithelia), in words” value [1] is reported as “epidermal hyperplasia”. The “% increase in epidermal thickness” value [1, 11] was 203%, the “% reduction in number of utriculi” value [1, 11] was 67.4% and the “clinical visible skin irritancy, in words” value [1] was “without concomitant skin irritancy”. For the same compound, the “SCORE TPA Ear swelling” value [4] was 3 (% inhibition ET ≧50 p < 0.05).
With `Cc1ccccc1C(=O)c1ccc(Nc2ccc(F)cc2N)cc1Cl` [Compound 102, 4-(2-Amino-4-fluorophenylamino)-2-chloro-2′-methylbenzophenone] the “comedolytic effect (reduction in number of utriculi), in words” value [1] was “comedolytic effect” and the “epidermal hyperplasia (increase in epidermal thickness and follicular epithelia), in words” value [1] was “epidermal hyperplasia”.
For `Cc1ccccc1C(=O)c1ccc(Nc2ccccc2N)cc1Cl` [Compound 103, 4-(2-aminophenylamino)-2-chloro-2′-methylbenzophenone], the “SCORE OXA Oedema 48 hours p.c.” value [3] was 2 (% inhibition Oedema 48 h PC ≧ 35 p < 0.05), the “comedolytic effect (reduction in number of utriculi), in words” value [1] was “comedolytic effect” and the “epidermal hyperplasia (increase in epidermal thickness and follicular epithelia), in words” value [1] was “epidermal hyperplasia”. For the same compound, the “comedolytic effect (reduction in number of utriculi), in words” value ([1]; listed as 4-(2-aminophenylamino)-2-chloro-2′-methylbenzophenone) was “comedolytic activity”, the “% increase in epidermal thickness” value [1, 11] was 120% and the “% reduction in number of utriculi” value [1, 11] was 52.5%. The “clinical visible skin irritancy, in words” value [1] was “without concomitant skin irritancy” and the “SCORE TPA Ear swelling” value [4] was 2 (% inhibition ET ≧40 p < 0.05).
With `CCOC(=O)Nc1ccccc1Nc1ccc(C(=O)c2ccccc2C)c(Cl)c1` [Compound 106, ethyl N-(2-(4-(2-methylbenzoyl)-3-chlorophenylamino)phenyl)carbamate] the “SCORE OXA Oedema 48 hours p.c.” value [3] was 2 (% inhibition Oedema 48 h PC ≧ 35 p < 0.05), the “comedolytic effect (reduction in number of utriculi), in words” value [1] was “comedolytic effect” and the “epidermal hyperplasia (increase in epidermal thickness and follicular epithelia), in words” value [1] was “epidermal hyperplasia”. For the same compound, the “comedolytic effect (reduction in number of utriculi), in words” value ([1]; listed as ethyl N-(2-(4-(2-methylbenzoyl)-3-chlorophenylamino)phenyl)carbamate) was “comedolytic activity”, the “% increase in epidermal thickness” value [1, 11] was 146% and the “% reduction in number of utriculi” value [1, 11] was 38.3%. For the same compound, the “clinical visible skin irritancy, in words” value [1] was “without concomitant skin irritancy” and the “SCORE TPA Ear swelling” value [4] was 2 (% inhibition ET ≧40 p < 0.05).
In the case of `C[C@H]1c2cccc(O)c2C(O)=C2C(=O)[C@]3(O)C(O)=C(C(N)=O)C(=O)[C@@H](N(C)C)[C@@H]3[C@@H](O)[C@@H]21` [Doxycyclin], the Anti-inflam. ([2]; systemic administration) is listed as “Yes”, the Antibacterial ([2]; systemic administration) is listed as “Yes” and the Comedolytic ([2]; systemic administration) is listed as “No”. The Potential irritant ([2]; systemic administration) was “No” and the Teratogenic ([2]; systemic administration) was “Yes”.
With `CC[C@H]1OC(=O)[C@H](C)[C@@H](O[C@H]2C[C@@](C)(OC)[C@@H](O)[C@H](C)O2)[C@H](C)[C@@H](O[C@@H]2O[C@H](C)C[C@H](N(C)C)[C@H]2O)[C@](C)(O)C[C@@H](C)C(=O)[C@H](C)[C@@H](O)[C@]1(C)O` [Erythromycin] the “SCORE OXA Oedema 48 hours p.c.” value [3] was 0 (% inhibition Oedema 48 h PC < 25) and the “SCORE TPA Ear swelling” value [4] was 1 (% inhibition ET ≧25 p < 0.05).
For `CC1=C(/C=C/C(C)=C/C=C/C(C)=C\C(=O)O)C(C)(C)CCC1` [Isotretinoin], the Anti-inflam. ([2]; systemic administration) is listed as “Yes”, the Antibacterial ([2]; systemic administration) is listed as “Yes” and the Comedolytic ([2]; systemic administration) is listed as “Yes”. For the same compound, the Potential irritant ([2]; systemic administration) was “Yes” and the Teratogenic ([2]; systemic administration) was “Yes”.
For `CN(C)c1ccc(O)c2c1C[C@H]1C[C@H]3[C@H](N(C)C)C(O)=C(C(N)=O)C(=O)[C@@]3(O)C(O)=C1C2=O` [Minocyclin], the Anti-inflam. ([2]; systemic administration) is listed as “Yes”, the Antibacterial ([2]; systemic administration) is listed as “Yes” and the Comedolytic ([2]; systemic administration) is listed as “No”. The Teratogenic ([2]; systemic administration) was “Yes”.
In the case of `CN(C)[C@@H]1C(=O)C(C(N)=O)=C(O)[C@@]2(O)C(=O)C3=C(O)c4c(O)cccc4[C@@](C)(O)[C@H]3C[C@@H]12` [Tetracyclin], the Anti-inflam. ([2]; systemic administration) is given as “Yes”, the Antibacterial ([2]; systemic administration) is given as “Yes” and the Comedolytic ([2]; systemic administration) is given as “No”. The Potential irritant ([2]; systemic administration) was “No” and the Teratogenic ([2]; systemic administration) was “Yes”.

Source: US6624199B1, “Aminobenzophenones” (Leo Pharmaceuticals Products Ltd. A/S, priority 1999, dated 2003)
